Laboratory results from article PMC3720812, “YjcC, a c-di-GMP Phosphodiesterase Protein, Regulates the Oxidative Stress Response and Virulence of Klebsiella pneumoniae CG43” (PLoS ONE, 2013).

Legend:
[1] = molecular target: T1, YjcC-EAL domain (Klebsiella pneumoniae, UniProt A6TGY2); test: release of p-nitrophenol at […] nm; format: biochemical; conditions: chromogenic model substrate; activity only in figure
T1 construct: EAL domain only (C-terminal)

[2] = molecular target: T2, MrkJ (Klebsiella pneumoniae, UniProt G3FT02); test: release of p-nitrophenol at […] nm; format: biochemical; conditions: positive control enzyme; activity only in figure
T2 construct: recombinant from pET30b-mrkJ, E. coli BL21(DE3), purified
T2 sequence (G3FT02 entry or part of it): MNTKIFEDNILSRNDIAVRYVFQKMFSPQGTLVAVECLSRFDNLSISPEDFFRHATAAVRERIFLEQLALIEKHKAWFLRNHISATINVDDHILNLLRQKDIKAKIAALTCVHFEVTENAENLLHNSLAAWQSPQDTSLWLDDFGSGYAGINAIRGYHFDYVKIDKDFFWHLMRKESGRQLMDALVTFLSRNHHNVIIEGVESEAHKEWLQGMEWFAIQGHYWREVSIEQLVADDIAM

T1 sequence (A6TGY2 entry or part of it): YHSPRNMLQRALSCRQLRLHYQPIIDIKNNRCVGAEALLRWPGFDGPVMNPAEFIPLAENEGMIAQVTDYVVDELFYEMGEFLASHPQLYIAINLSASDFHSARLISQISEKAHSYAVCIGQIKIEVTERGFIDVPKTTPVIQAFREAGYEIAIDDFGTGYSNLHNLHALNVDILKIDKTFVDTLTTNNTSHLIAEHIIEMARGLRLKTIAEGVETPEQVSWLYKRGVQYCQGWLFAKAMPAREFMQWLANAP

## O=[N+]([O-])c1ccc(OP(=O)(O)Oc2ccc([N+](=O)[O-])cc2)cc1 [bis(p-nitrophenyl) phosphate]
[1]
  specific PDE activity: the purified EAL domain protein exhibits PDE activity towards pNpp
[2]
  specific PDE activity: This activity is lower than the level of the recombinant MrkJ
